Reference: patent publication US11701364B2, “Agonists of stimulator of interferon genes sting” (The Scripps Research Institute, priority 2018, dated 2023)

The compounds below were run against T1, STING (Stimulator of Interferon Genes) (Homo sapiens, UniProt Q86WV6, G230A/H232R/R293Q/R71H) (assay: ISG-LUC activation assay (ISRE-Luciferase assay in THP-1 Lucia ISG reporter cells)). Details: THP-1 Lucia ISG cells, 24 hours, luciferase reporter; read-out: ISG-LUC activation assay (EC50).
T1 construct: host or cells: THP-1-Lucia ISG cells (human monocytic line)
T1 sequence (Q86WV6 whole entry R71H/G230A/H232R/R293Q): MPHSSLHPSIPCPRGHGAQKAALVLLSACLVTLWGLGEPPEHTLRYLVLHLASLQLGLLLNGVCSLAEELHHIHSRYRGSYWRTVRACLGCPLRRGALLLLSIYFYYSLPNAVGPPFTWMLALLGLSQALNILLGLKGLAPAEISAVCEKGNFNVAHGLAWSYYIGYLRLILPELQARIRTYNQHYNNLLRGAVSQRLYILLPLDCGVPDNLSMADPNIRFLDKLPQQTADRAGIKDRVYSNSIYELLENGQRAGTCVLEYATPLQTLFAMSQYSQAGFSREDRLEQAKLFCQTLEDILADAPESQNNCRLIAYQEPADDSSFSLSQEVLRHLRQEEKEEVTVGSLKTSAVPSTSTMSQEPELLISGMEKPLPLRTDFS
Format: cell-based
Description: This has been established using a primary assay involving a human THP-1 cell line carrying an IRF-inducible reporter with 5 copies of the IFN signaling response element. Counter screens, involving alternative reporter constructs, rodent cell-based assays, as well as cGAS and STING knock-out cell lines, are used to eliminate luciferase artifacts and ensure human-rodent cross species reactivity, as well as pathway selectivity. Biochemical assays, involving cGAS enzymatic activity and STING protein binding assays, are used to identify the specific target of identified hits.
THP-1 Lucia ISG cells were resuspended in low-serum growth media (2% FBS) at a density of 5×10^5 cells/ml and treated with test article or vehicle (DMSO). 50 μL of cells were seeded into each well of a 384-well white greiner plates and incubated for 24 hours. To evaluate expression of the luciferase reporter, 30 μl of Quanti-luc (Invivogen) detection reagent was added to each well and luminescence was read using an Envision plate reader (Perkin Elmer) set with an integration time of 0.1 seconds.
`O=C(Nc1ccccc1C(O)(C(F)(F)F)C(F)(F)F)c1ccc(-n2ccnc2)nn1` [Compound 1] gave an EC50 of 593 nM.
`COC(=O)c1ccc(F)c(C)c1NC(=O)c1ccc(-n2ccnc2)nn1` [Compound 2] showed an EC50 of 4690 nM.
For `COC(=O)c1c(F)ccc(F)c1NC(=O)c1ccc(-n2ccnc2)nn1` [Compound 3], the EC50 was 10200 nM.
Work on `O=C(Nc1ccccc1C(=O)OC1CCC1)c1ccc(-n2ccnc2)nn1` [Compound 4] yielded an EC50 of 2070 nM.
With `COC(=O)c1ncccc1NC(=O)c1ccc(-n2ccnc2)nn1` [Compound 5] the EC50 was 1240 nM.
`COC(=O)c1ccc(C)c(C)c1NC(=O)c1ccc(-n2ccnc2)nn1` [Compound 6] gave an EC50 of ~2760 nM.
`Cc1noc(-c2ccccc2NC(=O)c2ccc(-n3ccnc3)nn2)n1` [Compound 7] was tested, and the EC50 was > 50000 nM.
`COC(=O)c1ccncc1NC(=O)c1ccc(-n2ccnc2)nn1` [Compound 8] was tested, and the EC50 was 2570 nM.
In the case of `Cc1cc2nc(-c3ccc(-n4ccnc4)nn3)oc(=O)c2cc1C` [Compound 9], the EC50 is reported as 163 nM.
Compound `COC(=O)c1cc(NC(=O)c2ccc(-n3ccnc3)nn2)cc(F)c1F` [Compound 10] has an EC50 of 468 nM.
Compound `COC(=O)c1cc(C)c(C)cc1NC(=O)c1ccc(-n2ccnc2)nn1` [Compound 11] has an EC50 of 103 nM.
`COC(=O)c1ccc(C#N)cc1NC(=O)c1ccc(-n2ccnc2)nn1` [Compound 12] was tested, and the EC50 was 159 nM.
Compound `COC(=O)c1cc(F)ccc1NC(=O)c1ccc(-n2ccnc2)nn1` [Compound 13] has an EC50 of 249 nM.
Compound `COC(=O)c1cc(OC)ccc1NC(=O)c1ccc(-n2ccnc2)nn1` [Compound 14] has an EC50 of 288 nM.
`COC(=O)c1ccc(C)cc1NC(=O)c1ccc(-n2ccnc2)nn1` [Compound 15] was tested, and the EC50 was 294 nM.
`COC(=O)c1ccc(F)cc1NC(=O)c1ccc(-n2ccnc2)nn1` [Compound 16] was tested, and the EC50 was 684 nM.
`COC(=O)c1ccc(Cl)cc1NC(=O)c1ccc(-n2ccnc2)nn1` [Compound 17] showed an EC50 of 312 nM.
Work on `COC(=O)c1ccc(F)c(F)c1NC(=O)c1ccc(-n2ccnc2)nn1` [Compound 18] yielded an EC50 of 568 nM.
`COC(=O)c1cc(F)cc(F)c1NC(=O)c1ccc(-n2ccnc2)nn1` [Compound 19] was tested, and the EC50 was 817 nM.
Work on `CCc1ccc(NC(=O)c2ccc(-n3ccnc3)nn2)c(C(=O)OC)c1` [Compound 20] yielded an EC50 of 418 nM.
Compound `COC(=O)c1cc(F)c(C)cc1NC(=O)c1ccc(-n2ccnc2)nn1` [Compound 21] has an EC50 of 90.4 nM.
In the case of `CC(C)COC(=O)c1ccccc1NC(=O)c1ccc(-n2ccnc2)nn1` [Compound 22], the EC50 is reported as 895 nM.
`COC(=O)c1cc2ccccc2cc1NC(=O)c1ccc(-n2ccnc2)nn1` [Compound 23] showed an EC50 of 56.1 nM.
`CC(C)OC(=O)c1cc(F)c(F)cc1NC(=O)c1ccc(-n2ccnc2)nn1` [Compound 24] was tested, and the EC50 was 736 nM.
`CC(C)OC(=O)c1cc(F)ccc1NC(=O)c1ccc(-n2ccnc2)nn1` [Compound 25] was tested, and the EC50 was 805 nM.
Compound `COC(=O)c1cc(C(F)(F)F)ccc1NC(=O)c1ccc(-n2ccnc2)nn1` [Compound 26] has an EC50 of 114 nM.
With `COC(=O)c1ccc(C(F)(F)F)cc1NC(=O)c1ccc(-n2ccnc2)nn1` [Compound 27] the EC50 was 136 nM.
With `COC(=O)c1cc(OC)c(F)cc1NC(=O)c1ccc(-n2ccnc2)nn1` [Compound 28] the EC50 was 95.8 nM.
`O=c1oc(-c2ccc(-n3ccnc3)nn2)nc2cc(F)c(F)cc12` [Compound 29] gave an EC50 of 140 nM.
In the case of `CCOC(=O)c1nc(C)ccc1NC(=O)c1ccc(-n2ccnc2)nn1` [Compound 30], the EC50 is reported as 149 nM.
Compound `COC(=O)c1ccc(C2CC2)cc1NC(=O)c1ccc(-n2ccnc2)nn1` [Compound 31] has an EC50 of 206 nM.
In the case of `COC(=O)c1cc(C2CC2)ccc1NC(=O)c1ccc(-n2ccnc2)nn1` [Compound 32], the EC50 is reported as 359 nM.
For `Cc1cc2c(=O)oc(-c3ccc(-n4ccnc4)nn3)nc2cc1F` [Compound 33], the EC50 was < 19.5 nM.
`COC(=O)c1cc(Cl)c(Cl)cc1NC(=O)c1ccc(-n2ccnc2)nn1` [Compound 34] gave an EC50 of 72.6 nM.
`O=c1oc(-c2ccc(-n3ccnc3)nn2)nc2cc(Cl)c(Cl)cc12` [Compound 35] showed an EC50 of 61.7 nM.
`O=c1oc(-c2ccc(-n3ccnc3)nn2)nc2cc(Cl)c(F)cc12` [Compound 36] was tested, and the EC50 was 40.3 nM.
`N#Cc1ccc2c(=O)oc(-c3ccc(-n4ccnc4)nn3)nc2c1` [Compound 37] gave an EC50 of 166 nM.
With `COc1ccc2c(=O)oc(-c3ccc(-n4ccnc4)nn3)nc2c1` [Compound 38] the EC50 was 485 nM.
`Cc1cc2nc(-c3ccc(-n4ccnc4)nn3)oc(=O)c2cc1F` [Compound 39] showed an EC50 of 30.8 nM.
Work on `COc1ccc2nc(-c3ccc(-n4ccnc4)nn3)oc(=O)c2c1` [Compound 40] yielded an EC50 of 684 nM.
Work on `O=c1oc(-c2ccc(-n3ccnc3)nn2)nc2ccc(OC(F)(F)F)cc12` [Compound 41] yielded an EC50 of 176 nM.
In the case of `O=c1oc(-c2ccc(-n3ccnc3)nn2)nc2cc(F)c(OC(F)(F)F)cc12` [Compound 42], the EC50 is reported as 373 nM.
For `COC(=O)c1nc(Br)c(F)cc1NC(=O)c1ccc(-n2ccnc2)nn1` [Compound 43], the EC50 was 142 nM.
Work on `COC(=O)c1cc(OC(F)(F)F)c(F)cc1NC(=O)c1ccc(-n2ccnc2)nn1` [Compound 44] yielded an EC50 of 573 nM.
With `COC(=O)c1cc2cnn(C)c2cc1NC(=O)c1ccc(-n2ccnc2)nn1` [Compound 45] the EC50 was 126 nM.
Compound `Cc1cc(NC(=O)c2ccc(-n3ccnc3)nn2)c(C(=O)OCCCCO)cc1C` [Compound 46] has an EC50 of 418 nM.
For `COC(=O)c1cc(Cl)c(C)nc1NC(=O)c1ccc(-n2ccnc2)nn1` [Compound 47], the EC50 was 282 nM.
`COC(=O)c1cc(C(F)(F)F)cc(F)c1NC(=O)c1ccc(-n2ccnc2)nn1` [Compound 48] was tested, and the EC50 was 475 nM.
In the case of `COC(=O)c1cc(C#N)ccc1NC(=O)c1ccc(-n2ccnc2)nn1` [Compound 49], the EC50 is reported as 588 nM.
In the case of `COC(=O)c1cc(C)c(F)cc1NC(=O)c1ccc(-n2ccnc2)nn1` [Compound 50], the EC50 is reported as 145 nM.
For `COC(=O)c1c(F)cc(F)cc1NC(=O)c1ccc(-n2ccnc2)nn1` [Compound 51], the EC50 was 198 nM.
For `COC(=O)c1cc(F)c(OC)cc1NC(=O)c1ccc(-n2ccnc2)nn1` [Compound 52], the EC50 was 74.4 nM.
`O=C(Nc1cc(Cl)c(F)cc1C(=O)O)c1ccc(-n2ccnc2)nn1` [Compound 53] gave an EC50 of ~625 nM.
`COc1cc(NC(=O)c2ccc(-n3ccnc3)nn2)c(C(=O)O)cc1F` [Compound 54] was tested, and the EC50 was 248 nM.
Work on `COC(=O)c1cc(C#N)c(F)cc1NC(=O)c1ccc(-n2ccnc2)nn1` [Compound 55] yielded an EC50 of 221 nM.
For `COC(=O)c1cc(F)c(C2CC2)cc1NC(=O)c1ccc(-n2ccnc2)nn1` [Compound 56], the EC50 was 302 nM.
With `COC(=O)c1cc(OC)c(Cl)cc1NC(=O)c1ccc(-n2ccnc2)nn1` [Compound 57] the EC50 was < 19.5 nM.
With `COC(=O)c1cc(F)c(Br)cc1NC(=O)c1ccc(-n2ccnc2)nn1` [Compound 58] the EC50 was 60.6 nM.
Work on `COC(=O)c1cc(F)c(OC)c(F)c1NC(=O)c1ccc(-n2ccnc2)nn1` [Compound 59] yielded an EC50 of 780 nM.
`COC(=O)c1cc(Cl)c(Br)c(F)c1NC(=O)c1ccc(-n2ccnc2)nn1` [Compound 60] gave an EC50 of 62.2 nM.
`COC(=O)c1cc(C)c(Cl)cc1NC(=O)c1ccc(-n2ccnc2)nn1` [Compound 61] was tested, and the EC50 was 124 nM.
`COc1ccc(C(=O)O)c(NC(=O)c2ccc(-n3ccnc3)nn2)c1` [Compound 62] showed an EC50 of 1460 nM.
For `NC(=O)c1cc(F)c(F)cc1NC(=O)c1ccc(-n2ccnc2)nn1` [Compound 63], the EC50 was 2640 nM.
`CCOC(=O)c1ccccc1NC(=O)c1ccc(-n2ccnc2)nn1` [Compound 64] was tested, and the EC50 was 926 nM.
Compound `CCc1ccc(NC(=O)c2ccc(-n3ccnc3)nn2)c(C(=O)OC(C)C)c1` [Compound 65] has an EC50 of 1160 nM.
`Cc1ccc(C(=O)OC(C)C)c(NC(=O)c2ccc(-n3ccnc3)nn2)c1` [Compound 66] showed an EC50 of 518 nM.
Work on `CCOC(=O)C1=C(NC(=O)c2ccc(-n3ccnc3)nn2)CCC(C)C1` (centres unmarked) [Compound 67] yielded an EC50 of 2950 nM.
`CCN(CC)CCOC(=O)c1cc(F)c(F)cc1NC(=O)c1ccc(-n2ccnc2)nn1` [Compound 68] showed an EC50 of 1810 nM.
For `COC(=O)c1ncc(F)cc1NC(=O)c1ccc(-n2ccnc2)nn1` [Compound 69], the EC50 was 2790 nM.
Compound `COC(=O)c1cc(C(F)(F)F)c(F)cc1NC(=O)c1ccc(-n2ccnc2)nn1` [Compound 70] has an EC50 of 1720 nM.
`COC(=O)c1nc(OC)ncc1NC(=O)c1ccc(-n2ccnc2)nn1` [Compound 71] showed an EC50 of 1660 nM.
`COC(=O)c1c(F)cccc1NC(=O)c1ccc(-n2ccnc2)nn1` [Compound 72] was tested, and the EC50 was 1670 nM.
In the case of `COC(=O)c1cc(C#N)cc(F)c1NC(=O)c1ccc(-n2ccnc2)nn1` [Compound 73], the EC50 is reported as 2370 nM.
`COC(=O)c1nc(OC)ccc1NC(=O)c1ccc(-n2ccnc2)nn1` [Compound 74] showed an EC50 of 1360 nM.
For `COCC(=O)c1nc(Cl)ncc1NC(=O)c1ccc(-n2ccnc2)nn1` [Compound 75], the EC50 was 1260 nM.
`COC(=O)c1cc(OC(F)(F)F)ccc1NC(=O)c1ccc(-n2ccnc2)nn1` [Compound 76] gave an EC50 of 573 nM.
For `COC(=O)C1=C(NC(=O)c2ccc(-n3ccnc3)nn2)CC(C)(C)C1` [Compound 77], the EC50 was > 50000 nM.
With `O=C(Nc1cc2ccccc2cc1C(=O)O)c1ccc(-n2ccnc2)nn1` [Compound 78] the EC50 was 4440 nM.
With `CCc1ccc(NC(=O)c2ccc(-n3ccnc3)nn2)c(C(=O)O)c1` [Compound 79] the EC50 was > 20000 nM.
For `O=C(Nc1cc(F)c(C(F)(F)F)cc1C(=O)O)c1ccc(-n2ccnc2)nn1` [Compound 80], the EC50 was 3970 nM.
For `Cc1cc(NC(=O)c2ccc(-n3ccnc3)nn2)c(C(=O)O)cc1F` [Compound 81], the EC50 was 2740 nM.
`Cc1ccc(C(=O)O)c(NC(=O)c2ccc(-n3ccnc3)nn2)c1` [Compound 82] gave an EC50 of 6390 nM.
`O=C(Nc1ccc(Cl)cc1C(=O)O)c1ccc(-n2ccnc2)nn1` [Compound 83] was tested, and the EC50 was > 20000 nM.
